In ChEMBL document CHEMBL3779792, “Anti-proliferative evaluation of monoterpene derivatives against leukemia” (Eur J Med Chem, 2016):

How the values were obtained:
BJ = assay: Cytotoxicity against human BJ cells after 72 hrs by Cell-Titer Glo assay; type: cell-based
[1] = Cytotoxicity against human NALM6 cells after 72 hrs by Cell-Titer Glo assay; type: functional, cell-based; conditions: NALM-6, 72 h
HEK293 = assay: Cytotoxicity against HEK293 cells after 72 hrs by Cell-Titer Glo assay; type: cell-based; conditions: Homo sapiens, HEK293, 72 h
[2] = Cytotoxicity against human SEM cells after 72 hrs by Cell-Titer Glo assay; type: functional, cell-based
Raji = assay: Cytotoxicity against human Raji cells after 72 hrs by Cell-Titer Glo assay; type: functional, cell-based
Jurkat = assay: Cytotoxicity against human Jurkat cells after 72 hrs by Cell-Titer Glo assay; type: functional, cell-based
HepG2 = assay: Cytotoxicity against human HepG2 cells after 72 hrs by Cell-Titer Glo assay; type: functional, cell-based; conditions: HepG2, 72 h

Compound | EC50 (BJ) | EC50 [1] | EC50 (HEK293) | EC50 [2] | EC50 (Raji) | EC50 (Jurkat) | EC50 (HepG2)
C=C[C@@](C)(/C=C/c1ccc(O)c(/C=C/C(=O)NCc2ccc(C(F)(F)F)cc2)c1)CCC=C(C)C | > 36.6 µM | > 43.5 µM | > 36.6 µM | > 36.6 µM | > 26 µM | > 49 µM | > 52.1 µM
C=C[C@@](C)(/C=C/c1ccc(O)cc1)CC/C=C(\C)C(=O)OCC | > 36.6 µM | > 43.5 µM | > 36.6 µM | > 36.6 µM | > 26 µM | > 49 µM | > 52.1 µM
C=C[C@@](C)(/C=C/c1ccc(O)cc1)CC/C=C(C)/C=C/C(=O)OCC | > 36.6 µM | 0.815 µM | > 36.6 µM | > 36.6 µM | > 26 µM | > 49 µM | > 52.1 µM
COc1ccc(/C=C/[C@@](C)(/C=C/c2ccc(O)cc2)CCC=C(C)C)cc1 | > 36.6 µM | > 43.5 µM | > 36.6 µM | > 36.6 µM | > 26 µM | > 49 µM | > 52.1 µM
C=C[C@@](C)(/C=C/c1ccc(O)cc1)CCC=O | > 36.6 µM | > 43.5 µM | > 36.6 µM | > 36.6 µM | > 26 µM | > 49 µM | > 52.1 µM
C=C[C@@](C)(/C=C/c1ccc(O)c(CO)c1)CCC=C(C)C | > 36.6 µM | 16.4 µM | > 36.6 µM | > 36.6 µM | > 26 µM | > 49 µM | > 52.1 µM
C=C[C@@](C)(/C=C/c1ccc(O)c(/C=C/c2ccc(Cl)c(Cl)c2)c1)CCC=C(C)C | > 13 µM | 7.51 µM | > 36.6 µM | > 7.51 µM | > 26 µM | > 49 µM | > 52.1 µM
CCOc1ccc(/C=C/[C@@](C)(/C=C/c2ccc(O)cc2)CCC=C(C)C)cc1 | > 36.6 µM | > 43.5 µM | > 36.6 µM | > 36.6 µM | > 26 µM | > 49 µM | > 52.1 µM
COc1ccc(/C=C/[C@@](C)(/C=C/c2ccc(O)c(/C=C/C(=O)OCc3ccccc3)c2)CCC=C(C)C)cc1 | > 36.6 µM | > 43.5 µM | > 36.6 µM | > 36.6 µM | > 26 µM | > 49 µM | > 26 µM
C=C[C@@](C)(/C=C/c1ccc(O)cc1)CC/C=C/C(=O)c1ccccc1 | > 36.6 µM | > 43.5 µM | > 36.6 µM | > 36.6 µM | > 26 µM | > 49 µM | > 52.1 µM
C=C[C@@](C)(/C=C/c1ccc(O)c(/C=C(\C)C(=O)OCC)c1)CCC=C(C)C | > 36.6 µM | > 7.51 µM | > 36.6 µM | > 36.6 µM | > 26 µM | > 49 µM | > 52.1 µM
C=C[C@@](C)(/C=C/c1ccc(O)c(/C=C/C(=O)OCc2ccccc2)c1)CCC=C(C)C | > 36.6 µM | > 43.5 µM | > 36.6 µM | > 36.6 µM | > 26 µM | > 49 µM | > 52.1 µM
C=C[C@@](C)(/C=C/c1ccc(O)cc1)CC/C=C(C)/C=N/N | > 36.6 µM | > 43.5 µM | > 36.6 µM | > 36.6 µM | > 26 µM | > 49 µM | > 52.1 µM
C=C[C@@](C)(/C=C/c1ccc(O)cc1)CC/C=C/C(=O)OCC | > 36.6 µM | > 43.5 µM | > 36.6 µM | > 36.6 µM | > 26 µM | > 49 µM | > 52.1 µM
C=C[C@@](C)(/C=C/c1ccc(O)c(C=O)c1)CCC=C(C)C | > 36.6 µM | 11.2 µM | > 36.6 µM | 8.51 µM | > 26 µM | > 49 µM | > 52.1 µM
C=C[C@@](C)(/C=C/c1ccc(O)cc1)CC/C=C/C#N | > 36.6 µM | > 43.5 µM | > 36.6 µM | > 36.6 µM | > 26 µM | > 49 µM | > 52.1 µM
COc1ccc(/C=C/[C@@](C)(/C=C/c2ccc(O)c(/C=C/C(=O)OC(C)(C)C)c2)CCC=C(C)C)cc1 | > 36.6 µM | > 43.5 µM | > 36.6 µM | > 36.6 µM | > 26 µM | > 49 µM | > 52.1 µM
